Results on six compounds are retold here after patent publication US8871798B2, “Tricyclic pyridyl-vinyl pyrroles as PAR1 inhibitors” (Sanofi, priority 2010, dated 2014).

Each structure is given as a SMILES string.

For this assay, the target named is T1, PAR1 (Homo sapiens, UniProt P25116).
T1 construct: endogenous in cells; host or cells: washed platelets from blood of healthy volunteers
T1 sequence (P25116 22-425): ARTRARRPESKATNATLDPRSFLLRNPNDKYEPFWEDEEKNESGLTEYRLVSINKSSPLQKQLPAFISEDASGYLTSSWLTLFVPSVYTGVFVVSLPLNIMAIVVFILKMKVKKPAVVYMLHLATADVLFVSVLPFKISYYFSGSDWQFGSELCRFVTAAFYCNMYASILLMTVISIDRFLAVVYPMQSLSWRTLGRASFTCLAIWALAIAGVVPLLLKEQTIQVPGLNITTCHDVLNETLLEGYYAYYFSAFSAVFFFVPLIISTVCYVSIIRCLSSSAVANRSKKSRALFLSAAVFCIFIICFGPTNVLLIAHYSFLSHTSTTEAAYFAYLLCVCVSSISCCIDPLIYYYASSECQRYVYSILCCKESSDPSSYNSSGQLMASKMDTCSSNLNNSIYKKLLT
Kind of assay: Inhibition of PAR1-mediated platelet aggregation induced by TRAP (thrombin receptor-activating peptide), washed platelets, 96-well format. The conditions noted are these: TRAP-induced aggregation of platelets from healthy volunteers; 30 min preincubation at RT; AUC of kinetics at 650 nm, 37° C., 20 minutes. The assay is classed as cell-based. On the procedure: PAR1 Determination Method: Inhibition of PAR1-Mediated Platelet Aggregation
The pharmacological testing of the substances took place in platelet aggregation induced by TRAP (thrombin receptor-activating peptide) in 96-well format. For this purpose, blood was taken from healthy volunteers in 20 ml syringes containing 2 ml of 3.13% strength sodium citrate solution. After centrifugation at 150×g for 20 minutes, the platelet-rich plasma (PRP) was separated off and mixed with 1 μl of PGE1 solution (500 μg/ml in ethanol)/ml of PRP. Incubation at RT for 5 minutes was followed by centrifugation at 120×g for 15 minutes to remove the leukocytes. The leukocyte-free PRP was transferred in 5 ml portions into 15 ml PP tubes and centrifuged at 360×g for 15 minutes in order to pellet the platelets. The plasma was then decanted off and the platelet sediment from 5 ml of PRP was resuspended in 1 ml of Tyrode's (120 mM NaCl, 2.6 mM KCl, 12 mM NaHCO3, 0.39 mM NaH2PO4×H2O, 10 mM HEPES, 0.35% BSA (Bovine Serum Albumin), 5.5 mM glucose, pH 7.4) and adjusted with Tyrode's to a platelet count of 3×10^5/microliter (μl). 13 ml of this cell suspension were then mixed with 866 μl of 10 mM CaCl2 solution, and 120 μl thereof were pipetted into each well of a 96-well plate containing 15 μl of the substance to be tested. After incubation at RT in the dark for 30 minutes, 15 μl of a TRAP solution (70-100 μM) were added as agonist, and kinetics were recorded at 650 nm in a SpectraMax 340 at 37° C. for 20 minutes while shaking. The areas under the curves of negative control (Tyrode's/DMSO) and positive control (15 μl of agonist DMSO) were calculated and the difference was fixed as the 100% value. The substances to be tested were pipetted as serial dilutions in duplicate determination, the AUC was likewise determined for each substance concentration, and the % inhibition of the AUC compared with the control was calculated. On the basis of the % inhibition, the IC50 was calculated by nonlinear regression analysis according to the 4-parameter equation.

The compound `CN1C(=O)C2C(C1=O)C1C[C@H](O)CN1C2/C=C/c1ccc(-c2cccc(F)c2)cn1` (mixture of isomers) [11 (Fr. 2), (S)-4-{(E)-2-[5-(3-Fluorophenyl)pyridin-2-yl]vinyl}-7-hydroxy-2-methylhexahydropyrrolo[3,4-a]pyrrolizine-1,3-dione] showed a concentration for half-maximal inhibition (IC50) of 15.8 µM.

In turn, `CN1C(=O)C2C(C1=O)C1COCCN1C2/C=C/c1ccc(-c2cccc(F)c2)cn1` (racemic) [13 (Fr. 3), 6-{(E)-2-[5-(3-Fluorophenyl)pyridin-2-yl]vinyl}-8-methylhexahydropyrrolo[3′,4′:3,4]pyrrolo[2,1-c][1,4]oxazine-7,9-dione] had an IC50 of 7.1 µM.

Compound `CCN1C(=O)C2C(C1=O)C1CCCCN1C2/C=C/c1ccc(-c2cccc(F)c2)cn1` (racemic) [14 (Fr. 3), 2-Ethyl-4-{(E)-2-[5-(3-fluorophenyl)pyridin-2-yl]vinyl}octahydropyrrolo[3,4-a]indolizine-1,3-dione] showed an IC50 of 3.68 µM.

In the case of `CN1C(=O)[C@@H]2[C@H](C1=O)[C@H](/C=C/c1ccc(-c3cccc(C(F)(F)F)c3)cn1)N1CCCC[C@@H]21` (racemic) [Example 18, 2-Methyl-4-{(E)-2-[5-(3-trifluoromethylphenyl)pyridin-2-yl]vinyl}octahydropyrrolo[3,4-a]indolizine-1,3-dione], 3.23 µM corresponded to half-maximal inhibition (IC50).

The compound `COc1ccccc1-c1ccc(/C=C/[C@H]2[C@H]3C(=O)N(C)C(=O)[C@H]3[C@@H]3CCCCN23)nc1` (racemic) [Example 19, 4-{(E)-2-[5-(2-Methoxyphenyl)pyridin-2-yl]vinyl}-2-methyloctahydropyrrolo[3,4-a]-indolizine-1,3-dione] returned a concentration for half-maximal inhibition (IC50) of 4.09 µM.

For the compound `CN1C(=O)[C@@H]2[C@H](C1=O)[C@H](/C=C/c1ccc(-c3ccccc3Cl)cn1)N1CCCC[C@@H]21` (racemic) [Example 20, 4-{(E)-2-[5-(2-Chlorophenyl)pyridin-2-yl]vinyl}-2-methyloctahydropyrrolo[3,4-a]-indolizine-1,3-dione], the IC50 worked out at 0.26 µM.
